Active and inactive are the calls of the source. No cut-off for these calls is given here.
Columns and labels:
Mus musculus [1] = species on record: Mus musculus; experiment: Compound was tested for Antihyperlipidemic activity, activity is expressed as percent increase of body weight
Rattus norvegicus [2] = species on record: Rattus norvegicus; experiment: Compound was tested for Antihyperlipidemic activity in Zucker Diabetic fatty rats, activity is expressed as percent reduction of Triglycerides; assay type: functional
Rattus norvegicus [3] = species on record: Rattus norvegicus; experiment: Compound was tested for Antihyperlipidemic activity in Zucker Diabetic fatty rats, activity is expressed as percent reduction of NEFAs; assay type: functional
[4] = biological target: T1, Peroxisome proliferator-activated receptor alpha (Mus musculus) (UniProt P23204); experiment: Compound was tested functionally in vitro for inducing 50% of the maximum alkaline phosphatase activity (Transactivation) against murine Peroxisome proliferator activated receptor alpha using transfection assay in CV-1 cells; IA = Inactive at 10e-4 M; assay type: functional, cell-based
T1 sequence (whole entry): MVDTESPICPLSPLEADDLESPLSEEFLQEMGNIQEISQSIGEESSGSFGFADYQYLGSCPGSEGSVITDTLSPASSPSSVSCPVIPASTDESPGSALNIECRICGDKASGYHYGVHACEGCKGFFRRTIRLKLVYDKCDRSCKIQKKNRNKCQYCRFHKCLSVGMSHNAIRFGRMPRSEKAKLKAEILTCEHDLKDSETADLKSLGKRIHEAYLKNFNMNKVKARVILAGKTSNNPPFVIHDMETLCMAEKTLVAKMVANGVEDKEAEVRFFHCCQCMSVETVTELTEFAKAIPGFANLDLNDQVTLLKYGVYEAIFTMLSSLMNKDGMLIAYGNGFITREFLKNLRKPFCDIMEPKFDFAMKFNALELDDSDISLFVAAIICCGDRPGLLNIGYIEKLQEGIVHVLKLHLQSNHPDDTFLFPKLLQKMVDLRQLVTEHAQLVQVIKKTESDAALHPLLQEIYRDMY

Rattus norvegicus [5] = experiment: Compound was tested in vivo for Antihyperglycemic activity in Zucker Diabetic fatty rats, activity is expressed as percent reduction of HbA1C.; assay type: functional
[6] = biological target: T2, Peroxisome proliferator-activated receptor delta (Mus musculus) (UniProt P35396); experiment: Compound was tested functionally in vitro for inducing 50% of the maximum alkaline phosphatase activity (Transactivation) against murine Peroxisome proliferator activated receptor delta using transfection assay in CV-1 cells; IA = Inactive at 10e-4 M; assay type: functional, cell-based
T2 sequence (whole entry): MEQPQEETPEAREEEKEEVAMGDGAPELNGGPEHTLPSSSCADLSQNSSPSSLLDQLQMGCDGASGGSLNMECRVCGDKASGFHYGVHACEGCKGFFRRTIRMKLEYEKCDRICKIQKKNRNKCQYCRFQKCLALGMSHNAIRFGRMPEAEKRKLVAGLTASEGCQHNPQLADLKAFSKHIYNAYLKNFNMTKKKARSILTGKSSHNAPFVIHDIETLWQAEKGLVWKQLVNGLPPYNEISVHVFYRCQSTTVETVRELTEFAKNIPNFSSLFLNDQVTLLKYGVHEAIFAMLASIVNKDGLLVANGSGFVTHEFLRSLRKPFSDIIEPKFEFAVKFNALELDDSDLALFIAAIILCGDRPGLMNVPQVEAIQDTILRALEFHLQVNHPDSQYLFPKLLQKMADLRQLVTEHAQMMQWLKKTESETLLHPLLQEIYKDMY

[7] = biological target: T3, Peroxisome proliferator-activated receptor delta (Homo sapiens) (UniProt Q03181); settings: CV-1; 10e-4 M
T3 sequence (whole entry): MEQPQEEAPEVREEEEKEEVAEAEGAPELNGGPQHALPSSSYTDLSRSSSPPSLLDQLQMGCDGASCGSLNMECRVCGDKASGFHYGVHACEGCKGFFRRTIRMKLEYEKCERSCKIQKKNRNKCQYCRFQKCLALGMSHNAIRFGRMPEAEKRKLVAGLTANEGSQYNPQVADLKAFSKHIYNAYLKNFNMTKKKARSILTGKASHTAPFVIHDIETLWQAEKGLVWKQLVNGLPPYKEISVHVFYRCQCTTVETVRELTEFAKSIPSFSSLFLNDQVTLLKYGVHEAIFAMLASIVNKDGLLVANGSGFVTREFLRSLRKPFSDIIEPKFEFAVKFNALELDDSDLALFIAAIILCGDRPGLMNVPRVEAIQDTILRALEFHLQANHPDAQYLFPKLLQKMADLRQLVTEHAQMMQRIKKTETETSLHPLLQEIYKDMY
Description: Compound was tested functionally in vitro for inducing 50% of the maximum alkaline phosphatase activity (Transactivation) against human Peroxisome proliferator activated receptor delta using transfection assay in CV-1 cells; IA = Inactive at 10e-4 M

Mus musculus [8] = experiment: Compound was tested in vivo for Antihyperglycemic activity in mice, activity is expressed as percent reduction of plasma glucose.; assay type: functional
Rattus norvegicus [9] = experiment: Compound was tested in vivo for Antihyperglycemic activity in Zucker Diabetic fatty rats, activity is expressed as percent reduction of plasma glucose; assay type: functional
Mus musculus [10] = species on record: Mus musculus; experiment: Compound was tested for Antihyperlipidemic activity, activity is expressed as percent reduction of NEFAs; assay type: functional
Mus musculus [11] = species on record: Mus musculus; experiment: Compound was tested for Antihyperlipidemic activity, activity is expressed as percent reduction of Triglycerides; assay type: functional
[12] = biological target: T4, Peroxisome proliferator-activated receptor alpha (Homo sapiens) (UniProt Q07869); experiment: The compound was tested in vitro for inhibiting the 50% binding of Peroxisome proliferator activated receptor alpha
T4 sequence (whole entry): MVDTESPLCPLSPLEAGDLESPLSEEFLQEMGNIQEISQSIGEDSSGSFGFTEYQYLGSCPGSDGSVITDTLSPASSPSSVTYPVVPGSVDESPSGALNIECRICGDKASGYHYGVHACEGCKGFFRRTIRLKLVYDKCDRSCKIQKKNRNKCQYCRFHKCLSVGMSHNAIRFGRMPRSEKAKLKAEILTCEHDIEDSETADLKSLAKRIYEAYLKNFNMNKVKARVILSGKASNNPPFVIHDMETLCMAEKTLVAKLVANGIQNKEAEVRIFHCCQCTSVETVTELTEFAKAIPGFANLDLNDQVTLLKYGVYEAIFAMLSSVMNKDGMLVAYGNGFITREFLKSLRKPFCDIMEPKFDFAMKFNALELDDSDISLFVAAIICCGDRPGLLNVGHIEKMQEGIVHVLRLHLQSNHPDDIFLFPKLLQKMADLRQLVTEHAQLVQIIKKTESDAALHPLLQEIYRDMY

[13] = biological target: T5, Peroxisome proliferator-activated receptor gamma (Mus musculus, UniProt P37238); experiment: Compound was tested functionally in vitro for inducing 50% of the maximum alkaline phosphatase activity (Transactivation) against murine Peroxisome proliferator activated receptor gamma using transfection assay in CV-1 cells; assay type: functional, cell-based
T5 sequence (P37238 whole entry): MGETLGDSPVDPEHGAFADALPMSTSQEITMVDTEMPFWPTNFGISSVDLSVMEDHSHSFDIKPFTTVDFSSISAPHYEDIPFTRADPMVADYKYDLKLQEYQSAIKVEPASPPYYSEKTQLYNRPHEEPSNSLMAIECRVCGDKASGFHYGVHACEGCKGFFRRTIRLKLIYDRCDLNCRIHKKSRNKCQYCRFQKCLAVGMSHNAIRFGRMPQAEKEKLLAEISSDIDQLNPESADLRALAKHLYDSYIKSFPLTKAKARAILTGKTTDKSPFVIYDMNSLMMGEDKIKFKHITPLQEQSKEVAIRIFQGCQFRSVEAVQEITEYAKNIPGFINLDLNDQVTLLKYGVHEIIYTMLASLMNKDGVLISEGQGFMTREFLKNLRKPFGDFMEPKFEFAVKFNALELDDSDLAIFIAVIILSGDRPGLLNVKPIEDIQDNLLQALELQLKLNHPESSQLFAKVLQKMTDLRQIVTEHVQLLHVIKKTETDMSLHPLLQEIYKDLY

[14] = biological target: T6, Peroxisome proliferator-activated receptor gamma (Homo sapiens, UniProt P37231); settings: cv-1
T6 sequence (P37231 whole entry): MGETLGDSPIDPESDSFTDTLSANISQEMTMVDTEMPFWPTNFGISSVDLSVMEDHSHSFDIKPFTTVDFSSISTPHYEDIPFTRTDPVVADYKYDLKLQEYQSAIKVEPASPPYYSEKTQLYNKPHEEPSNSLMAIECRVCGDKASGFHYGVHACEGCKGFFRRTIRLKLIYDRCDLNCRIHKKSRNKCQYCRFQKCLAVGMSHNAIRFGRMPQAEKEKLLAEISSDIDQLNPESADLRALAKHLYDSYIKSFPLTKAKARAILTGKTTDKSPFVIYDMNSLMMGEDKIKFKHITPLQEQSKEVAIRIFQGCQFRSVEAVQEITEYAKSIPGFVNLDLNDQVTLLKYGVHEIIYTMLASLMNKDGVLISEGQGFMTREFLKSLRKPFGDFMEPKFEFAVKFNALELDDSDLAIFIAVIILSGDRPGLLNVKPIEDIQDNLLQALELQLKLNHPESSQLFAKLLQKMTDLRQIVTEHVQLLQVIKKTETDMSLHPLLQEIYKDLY
Description: (§1) Activation of peroxisome proliferator activated receptor gamma measured by induction of 50% of maximum alkaline phosphatase activity, transfection assay in CV-1 cells

[15] = biological target: T7, Peroxisome proliferator-activated receptor gamma (Homo sapiens) (UniProt P37231)
T7 sequence (whole entry): T6 sequence (P37231 whole entry)
Description: Tested for its ability to bind to Peroxisome proliferator activated receptor gamma using [3H]-BRL 49653 as radioligand in scintillation proximity assay (SPA)

[16] = biological target: T6, Peroxisome proliferator-activated receptor gamma
Description: as §1

[17] = biological target: T8, Peroxisome proliferator-activated receptor alpha (Homo sapiens, UniProt Q07869); experiment: Compound was tested functionally in vitro for inducing 50% of the maximum alkaline phosphatase activity (Transactivation) against human Peroxisome proliferator activated receptor alpha using transfection assay in CV-1 cells; assay type: functional, cell-based
T8 sequence (Q07869 whole entry): T4 sequence (whole entry)

[18] = biological target: T6, Peroxisome proliferator-activated receptor gamma; remark: listed apart in the source
Description: In vitro binding to peroxisome proliferator activated receptor gamma (PPAR gamma) using [3H]-BRL 49653 as radioligand in scintillation proximity assay (SPA)

Rattus norvegicus [19] = experiment: The compound was tested in vivo for Antihyperglycemic activity in Zucker Diabetic fatty rats, activity is expressed as percent reduction of plasma glucose; assay type: functional
Rattus norvegicus [20] = species on record: Rattus norvegicus; experiment: The compound was tested for Antihyperlipidemic activity in Zucker Diabetic fatty rats, activity is expressed as percent reduction of Triglycerides; assay type: functional
Rattus norvegicus [21] = experiment: The compound was tested in vivo for Antihyperglycemic activity in Zucker Diabetic fatty rats, activity is expressed as percent reduction of HbA1C.; assay type: functional
Rattus norvegicus [22] = species on record: Rattus norvegicus; experiment: The compound was tested for Antihyperlipidemic activity in Zucker Diabetic fatty rats, activity is expressed as percent reduction of NEFAs; assay type: functional
[23] = biological target: T7, Peroxisome proliferator-activated receptor gamma (Homo sapiens); settings: 10e-4 M
Description: Compound was tested for its ability to promote differentiation of C3H10T1/2 stem cells to adipocytes using lipogenesis assay mediated through activation of Peroxisome proliferator activated receptor gamma; IA = Inactive at 10e-4 M

[24] = biological target: T4, Peroxisome proliferator-activated receptor alpha (Homo sapiens); settings: CV-1; 10e-4 M

**Q.** Which results are given for Cc1oc(-c2ccccc2)nc1CCOc1ccc(C[C@H](Nc2ccccc2C(=O)c2ccccc2)C(=O)O)cc1 [FARGLITAZAR]?
**A.** body weight increase % (Mus musculus [1]): 17%; Reduction (Rattus norvegicus [2]): 77%; Reduction (Rattus norvegicus [3]): 75%; Log EC50 [4]: inactive; Reduction (Rattus norvegicus [5]): 33%; Log EC50 [6]: inactive; Log EC50 [7]: inactive; Reduction (Mus musculus [8]): 65%; Reduction (Rattus norvegicus [9]): 65%; Reduction (Mus musculus [10]): 56%; Reduction (Mus musculus [11]): 54%

**Q.** Which results are given for CN(CCOc1ccc(C[C@H](Nc2ccccc2C(=O)c2ccccc2)C(=O)O)cc1)c1nc2ccccc2o1?
**A.** pKi [12]: 5.92; EC50 [13]: 4.68 nM; Log EC50 [14]: -8.58; Log Ki [15]: 8.83 µM; EC50 [16]: 2.63 nM; body weight increase % (Mus musculus [1]): 9%; Log EC50 [4]: inactive; Log EC50 [6]: inactive; EC50 [17]: 6460 nM; Log EC50 [7]: inactive; Reduction (Mus musculus [8]): 41%; Ki [18]: 1.48 nM; Reduction (Mus musculus [10]): 38%; Reduction (Mus musculus [11]): 36%

**Q.** For Cc1c(C)c2c(c(C)c1O)CCC(C)(COc1ccc(CC3SC(=O)NC3=O)cc1)O2 (stereo not given) [TROGLITAZONE], which Reduction (Rattus norvegicus [19]) is on record?
**A.** 61%

**Q.** What about the Reduction (Rattus norvegicus [20]) of the same molecule?
**A.** 87%

**Q.** And the Reduction (Rattus norvegicus [21])?
**A.** 29%

**Q.** What about the Reduction (Rattus norvegicus [22]) of the same molecule?
**A.** 81%

**Q.** Which EC50 [16] does the source give for CN(CCOc1ccc(CC(Nc2cccc3c2C(=O)c2ccccc2C3=O)C(=O)O)cc1)c1nc2ccccc2o1 (stereo not given) here?
**A.** 5.01 nM

**Q.** And the Ki [18]?
**A.** 5.13 nM

**Q.** What about the “Log EC50” value [23] of the same molecule?
**A.** inactive

**Q.** For CN(CCOc1ccc(C[C@H](Nc2ccccc2C(=O)c2ccccc2)C(=O)O)cc1)c1ccccn1 (stereo in doubt; 18), which EC50 [13] is on record?
**A.** 13.2 nM

**Q.** What about the “Log EC50” value [24] of the same molecule?
**A.** inactive

**Q.** And the “body weight increase %” value (Mus musculus [1])?
**A.** 6%

**Q.** And the Reduction (Rattus norvegicus [2])?
**A.** 87%

**Q.** What about the Reduction (Rattus norvegicus [3]) of the same molecule?
**A.** 73%

**Q.** What about the “Log EC50” value [4] of the same molecule?
**A.** inactive

**Q.** What about the Reduction (Rattus norvegicus [5]) of the same molecule?
**A.** 37%

**Q.** And the “Log EC50” value [6]?
**A.** inactive

**Q.** What about the “Log EC50” value [7] of the same molecule?
**A.** inactive

**Q.** What about the Reduction (Mus musculus [8]) of the same molecule?
**A.** 58%

**Q.** And the Reduction (Rattus norvegicus [9])?
**A.** 68%

**Q.** What about the Reduction (Mus musculus [10]) of the same molecule?
**A.** 46%

**Q.** And the Reduction (Mus musculus [11])?
**A.** 61%

Reference: ChEMBL document CHEMBL1131422, “N-(2-Benzoylphenyl)-L-tyrosine PPARgamma agonists. 1. Discovery of a novel series of potent antihyperglycemic and antihyperlipidemic agents” (J Med Chem, 1998)
